This is an account of results in ChEMBL document CHEMBL1201862, “PubChem BioAssay data set” (2004).

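Assay format: 96-well plates, 48-hour exposure. GI50: concentration for 50% inhibition of growth.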 Active and inactive are the calls of the source. No stated cut-off is given here; in the data, active = GI50 up to about 1.1 µM and inactive = higher.

Some test systems named below: A549; CCRF-CEM; EKVX; HCT-15; K562; M19-MEL; OVCAR-4; OVCAR-8; RPMI-8226; SNB-19; UACC-62; A498; BT-549; CAKI-1; HOP-92; MDA-N; NCI-H522; OVCAR-3; PC-3; SF-539.
Common to all, as to assay: NCI-60 cell line screen, 48 h

Regarding `CC(=O)O[C@]12CCCCCC1C1(O)C(O)CCC[C@H]12` (stereo partly specified), the GI50 with A549 was > 100 µM (inactive); in the test on CCRF-CEM, > 100 µM (inactive); in the test with EKVX it was > 100 µM (inactive); in the test with HCT-15 it was over 100 µM; in the test with K562 it was > 100 µM (inactive); in the test on M19-MEL it was > 100 µM (inactive). The GI50 in the test on OVCAR-4, in the test with OVCAR-8, in the test on RPMI-8226, in the test on SNB-19 and in the test on UACC-62 was > 100 µM (inactive) each time.
Take `CC(C)(C)OC(=O)N1CC(COS(C)(=O)=O)c2ccc(O)cc21` (stereo unspecified): the GI50 in the test on A498 was 2.18 µM (inactive); in the test with A549 it was 3.12 µM (inactive); in the test with BT-549, 1.52 µM (inactive); with CAKI-1, 2.42 µM (inactive); with CCRF-CEM, 0.455 µM (active); in the test with EKVX, 2.23 µM (inactive). Further, the GI50 in the test on HCT-15 was 2.46 µM; in the test with HOP-92, 2.52 µM (inactive); in the test on K562 it was 2.3 µM (inactive); in the test on MDA-N it was 2.08 µM (inactive); in the test on NCI-H522 it was 1.05 µM (active); in the test with OVCAR-3 it was 2.05 µM (inactive). In addition, the GI50 is 1.18 µM (inactive) with OVCAR-4; 1.85 µM (inactive) in the test on OVCAR-8; 1.73 µM (inactive) with PC-3; 0.615 µM (active) in the test on RPMI-8226; 2.06 µM (inactive) in the test with SF-539; 2.7 µM (inactive) in the test with SNB-19. The GI50 in the test with UACC-62 is 1.73 µM (inactive).
For `CC(=O)/C(=C\c1cccc([N+](=O)[O-])c1)C(=O)Nc1ccccc1C`, the GI50 with A549 is > 100 µM (inactive); in the test with CAKI-1 it was > 100 µM (inactive); in the test with CCRF-CEM it was 31.2 µM (inactive); in the test with EKVX, > 100 µM (inactive); in the test on HCT-15 it was over 100 µM; with HOP-92, > 100 µM (inactive). Moreover, the GI50 is 72.4 µM (inactive) in the test on K562; > 100 µM (inactive) with M19-MEL; > 100 µM (inactive) in the test with NCI-H522; > 100 µM (inactive) in the test on OVCAR-3; 56.4 µM (inactive) in the test with OVCAR-4; > 10 µM (inactive) in the test with OVCAR-8. Further, the GI50 was 42.8 µM (inactive) in the test on RPMI-8226, > 100 µM (inactive) in the test with SF-539, 94.4 µM (inactive) in the test with SNB-19 and 59.2 µM (inactive) in the test on UACC-62.
With `N#Cc1nc(-c2ccccn2)c(-c2ccccn2)nc1C#N`, the GI50 in the test with A498 was 2.09 µM (inactive); in the test with A549, 1.14 µM (inactive); in the test on BT-549, 2.36 µM (inactive); in the test on CAKI-1, 2.04 µM (inactive); with CCRF-CEM, 2.69 µM (inactive); in the test with EKVX, 3.15 µM (inactive). The GI50 with HCT-15 was 0.682 µM; in the test on HOP-92, 7.96 µM (inactive); with K562 it was 5.85 µM (inactive); in the test on MDA-N it was 2.61 µM (inactive); with NCI-H522 it was 1.64 µM (inactive); with OVCAR-3, 3.79 µM (inactive). Also, the GI50 in the test on OVCAR-4 was 1.79 µM (inactive); with OVCAR-8, 2.64 µM (inactive); with PC-3, 4.88 µM (inactive); with RPMI-8226, 2.83 µM (inactive); in the test on SF-539, 4.19 µM (inactive); in the test on SNB-19 it was 4.1 µM (inactive). For the same compound, the GI50 in the test on UACC-62 is 0.47 µM (active).
`COc1ccc(/C=c2/sc3n(c2=O)NC2(CCC(C)CC2)NN=3)cc1` (stereo unspecified): the GI50 in the test with A549 is > 100 µM (inactive); in the test on CAKI-1, > 100 µM (inactive); in the test on CCRF-CEM it was > 100 µM (inactive); in the test with EKVX, > 100 µM (inactive); in the test on HOP-92, 34.9 µM (inactive); in the test on K562, > 100 µM (inactive). In addition, the GI50 in the test with M19-MEL was > 100 µM (inactive); with NCI-H522, > 100 µM (inactive); in the test with OVCAR-3 it was 60.8 µM (inactive); in the test on OVCAR-4, 52.5 µM (inactive); in the test with OVCAR-8, > 100 µM (inactive); in the test with SF-539, > 100 µM (inactive). For the same compound, the GI50 in the test with SNB-19 and in the test with UACC-62 was > 100 µM (inactive) each time.
Take `C[C@@]1(CCCCCCCCCCc2ccccc2)C[C@@]2(C)OC(=O)C[C@H]2OO1`: the GI50 is 19.7 µM (inactive) in the test with A498; 2.76 µM (inactive) in the test with A549; 0.479 µM (active) with BT-549; 30.3 µM (inactive) in the test with CAKI-1; 1.55 µM (inactive) in the test on CCRF-CEM; 2.52 µM (inactive) in the test on EKVX. The GI50 in the test with HCT-15 was 1.73 µM; in the test on HOP-92, 0.769 µM (active); in the test on K562, 1.68 µM (inactive); with MDA-N, 1.99 µM (inactive); in the test with NCI-H522, 1.72 µM (inactive); in the test with OVCAR-3, 1.79 µM (inactive). In addition, the GI50 with OVCAR-4 is 2.17 µM (inactive); in the test with OVCAR-8, 1.43 µM (inactive); in the test with PC-3 it was 1.77 µM (inactive); in the test on RPMI-8226, 1.85 µM (inactive); in the test with SF-539, 1.57 µM (inactive); in the test with SNB-19, 2.26 µM (inactive). Besides, the GI50 in the test on UACC-62 is 1.8 µM (inactive).
Take `C=CC1=C(C)c2cc3[nH]c(cc4nc(cc5[nH]c(cc1n2)c(C)c5CCC(=O)N(CC)CC)C(CCC(=O)N(CC)CC)=C4C)c(C)c3C=C`: the GI50 is > 100 µM (inactive) in the test with A549; > 100 µM (inactive) in the test on CCRF-CEM; > 100 µM (inactive) with EKVX; over 100 µM in the test with HCT-15; 6.04 µM (inactive) in the test on HOP-92; > 100 µM (inactive) with K562. Besides, the GI50 in the test with M19-MEL, with NCI-H522, in the test on OVCAR-3, in the test on OVCAR-4, in the test with OVCAR-8 and with SF-539 was > 100 µM (inactive) each time. The GI50 with UACC-62 was > 100 µM (inactive).
Regarding `CCOC(=O)C(CS)NC(=O)CCCCCCCC(=O)NC(CS)C(=O)OCC` (stereo unspecified), the GI50 was > 100 µM (inactive) in the test with A498; > 100 µM (inactive) in the test on A549; > 100 µM (inactive) with BT-549; > 100 µM (inactive) with CAKI-1; 21.2 µM (inactive) in the test with CCRF-CEM; > 100 µM (inactive) in the test with EKVX. The GI50 with HCT-15 is over 100 µM; in the test on HOP-92, > 100 µM (inactive); in the test with K562 it was > 100 µM (inactive); in the test on MDA-N, > 100 µM (inactive); in the test on NCI-H522, 49.1 µM (inactive); in the test on OVCAR-3, > 100 µM (inactive). Also, the GI50 with OVCAR-4 is > 100 µM (inactive); in the test with OVCAR-8, > 100 µM (inactive); with PC-3, > 100 µM (inactive); in the test with RPMI-8226 it was > 100 µM (inactive); with SF-539, > 100 µM (inactive); in the test with SNB-19, 37.4 µM (inactive). Moreover, the GI50 in the test on UACC-62 was > 100 µM (inactive).
Take `Cc1noc(C)c1-n1nc2ccc3nonc3c2n1`: the GI50 in the test on A498 was 32.7 µM (inactive); in the test with A549, > 100 µM (inactive); with BT-549 it was 79.3 µM (inactive); in the test with CAKI-1, > 83.8 µM (inactive); in the test on CCRF-CEM it was > 100 µM (inactive); in the test on EKVX, 35.9 µM (inactive). For the same compound, the GI50 in the test on HCT-15 is over 100 µM; in the test on HOP-92, 29.1 µM (inactive); with K562, > 100 µM (inactive); in the test with MDA-N, > 100 µM (inactive); in the test on NCI-H522, > 78.7 µM (inactive); in the test with OVCAR-3, > 100 µM (inactive). For the same compound, the GI50 in the test on OVCAR-4 was > 100 µM (inactive); in the test with OVCAR-8, 50.7 µM (inactive); with PC-3 it was > 100 µM (inactive); in the test on RPMI-8226, > 100 µM (inactive); with SF-539, 41.5 µM (inactive); with SNB-19 it was 32.3 µM (inactive). Moreover, the GI50 with UACC-62 was > 59.8 µM (inactive).
With `Cc1c(S(=O)(=O)c2ccccc2)c(N)n(Cc2ccccc2)c1C`, the GI50 with A498, in the test on A549, in the test on BT-549, in the test with CAKI-1, with CCRF-CEM and in the test on EKVX was > 100 µM (inactive) throughout. Besides, the GI50 with HCT-15 was over 100 µM; with HOP-92, > 100 µM (inactive); in the test on K562, > 100 µM (inactive); with MDA-N, > 100 µM (inactive); in the test with NCI-H522 it was > 100 µM (inactive); in the test with OVCAR-3, 96.8 µM (inactive). For the same compound, the GI50 in the test with OVCAR-4 is 85.7 µM (inactive); with OVCAR-8 it was > 100 µM (inactive); in the test on PC-3, 38.2 µM (inactive); in the test on RPMI-8226, > 100 µM (inactive); in the test on SF-539 it was 53.1 µM (inactive); in the test with SNB-19 it was > 100 µM (inactive). The GI50 in the test on UACC-62 is > 100 µM (inactive).
For `COc1ccc(C[C@H]2NC[C@H](O)[C@H]2OC(C)=O)cc1` [ANISOMYCIN], the GI50 was 0.0324 µM (active) in the test on A498; 0.0232 µM (active) in the test with A549; 0.0411 µM (active) in the test with BT-549; 0.0106 µM (active) in the test on CAKI-1; < 0.0122 µM (active) in the test on CCRF-CEM; 0.0361 µM (active) with EKVX. Also, the GI50 in the test on HCT-15 was 0.0326 µM; in the test with HOP-92, 0.016 µM (active); in the test with K562, < 0.0124 µM (active); with MDA-N it was 0.0313 µM (active); in the test with NCI-H522, < 0.0198 µM (active); in the test with OVCAR-3, 0.0263 µM (active). Further, the GI50 in the test with OVCAR-4 is 0.0194 µM (active); in the test on OVCAR-8 it was < 0.0168 µM (active); with PC-3, < 0.0191 µM (active); in the test with RPMI-8226 it was 0.0243 µM (active); in the test on SF-539, 0.0213 µM (active); in the test with SNB-19 it was < 0.0177 µM (active). Moreover, the GI50 with UACC-62 was 0.0362 µM (active).
In the case of `CC(=O)O[C@@H]1CO[C@H]2O[C@H]3[C@@H](C(C=O)=C[C@H](O)[C@@H]4C5=C(C(C)C)CC[C@]5(C)CC[C@@]34C)[C@@]2(O)C1=O` [STRIATIN E], the GI50 in the test on A498 is 0.305 µM (active); in the test with A549 it was 0.805 µM (active); in the test with BT-549, 0.12 µM (active); with CAKI-1, 0.2 µM (active); in the test with CCRF-CEM it was < 0.0271 µM (active); in the test on EKVX, 0.359 µM (active). Besides, the GI50 with HCT-15 was 0.2 µM; in the test on HOP-92, 0.21 µM (active); with K562, 0.0869 µM (active); in the test on MDA-N, 0.177 µM (active); with NCI-H522, 0.0803 µM (active); in the test with OVCAR-3 it was 0.139 µM (active). Besides, the GI50 was 0.241 µM (active) in the test with OVCAR-4; 0.13 µM (active) in the test with OVCAR-8; 0.0968 µM (active) with PC-3; 0.0592 µM (active) in the test on RPMI-8226; 0.177 µM (active) with SF-539; 0.692 µM (active) in the test on SNB-19. Moreover, the GI50 with UACC-62 was 0.515 µM (active).
